Tested on: JJ5 Breast Cancer cells
Assay: Kinetics of binding and retention of radioactivity by the cells
Assay type: cell-based, human
From the text: Breast cancer cells express up to 100-fold higher levels of EGFR than do normal epithelial tissues. EGFR expression in breast cancer bone metastasis biopsies ranged from 1-1300 fmol/mg membrane protein (approximately 400-1,000,000 receptors/cell) and was associated with high relapse rates and poor long term survival. Normal epithelial cells express <10^4 receptors/cell. For the normal breast cell line HBL-100, 8000 EGFR/cell has been reported. The expression of EGFR in breast cancer cell lines has a reported range of 800 EGFR/cell for MCF-7 cells to 10^6 EGFR/cell for MDA-MB-468 cells. […] Utilizing the Auger electron emitter ^111In was used in the initial experiments to illustrate the utility of the invention using EGF-^111In-labeled transferrin compounds. […] The cell pellet was separated from the supernatant and counted in a g-scintillation counter to determine bound (B) and free (F) radioactivity. Non-specific binding was determined by conducting the assay in 100 nM hEGF. […] Internalized fraction was measured by determining the proportion of radioactivity which could not be displaced from the cell surface by 100 nM hEGF. Cell-associated binding (surface-binding and intracellular accumulation) was expressed as a percentage of medium radioactivity bound per mg of cell study protein.

EGF-^111In-labeled transferrin compound: human epidermal growth factor (EGF) operatively linked (peptide or PEG linker, biotin-streptavidin) to 111In-radiolabeled human transferrin
retained by the breast cancer cells (37° C., JJ5 cells): at least 24 hours
111In radioactivity lost from the cells in vitro (over a 24 hour period at 37° C.): < 8%

— patent publication US20040219100A1, “Composition useful for the treatment of tumors” (priority 2003, published 2004)
